Laboratory results as given in PubChem BioAssay AID2060495 (Molecular Pharmacology Branch, DTP, NCI, 2025).

Tested on: 521955-158-R2-J5-PDC complex spheroid viability
Experiment: Anticancer human tumor 521955-158-R2-J5-PDC patient-derived pancreatic carcinoma cell line growth inhibition [GQUAD]
Conditions: for IC50: curve of first compound; for viability, T/C: stronger effect = lower value
Method in brief: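 Viability of tumor cells grown as complex spheroids with endothelial and stromal cells, exposed to drug combinations. Top concentration at or near clinical Cmax (else 10 microM), diluted in half-log increments.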

[1] = second compound 0.0316 µM, first compound 0.0316 µM
[2] = second compound 0.0316 µM, first compound 0.1 µM
[3] = second compound 0.0316 µM, first compound 0.316 µM
[4] = second compound 0.0316 µM, first compound 1 µM
[5] = second compound 0.0316 µM, first compound 3.16 µM
[6] = second compound 0.0316 µM, first compound 10 µM
[7] = second compound 0.1 µM, first compound 0.0316 µM
[8] = second compound 0.1 µM, first compound 0.1 µM
[9] = second compound 0.1 µM, first compound 0.316 µM
[10] = second compound 0.1 µM, first compound 1 µM
[11] = second compound 0.1 µM, first compound 3.16 µM
[12] = second compound 0.1 µM, first compound 10 µM
[13] = second compound 0.316 µM, first compound 0.0316 µM
[14] = second compound 0.316 µM, first compound 0.1 µM
[15] = second compound 0.316 µM, first compound 0.316 µM
[16] = second compound 0.316 µM, first compound 1 µM
[17] = second compound 0.316 µM, first compound 3.16 µM
[18] = second compound 0.316 µM, first compound 10 µM
[19] = second compound 1 µM, first compound 0.0316 µM
[20] = second compound 1 µM, first compound 0.1 µM
[21] = second compound 1 µM, first compound 0.316 µM
[22] = second compound 1 µM, first compound 1 µM
[23] = second compound 1 µM, first compound 3.16 µM
[24] = second compound 1 µM, first compound 10 µM
[25] = second compound 3.16 µM, first compound 0.0316 µM
[26] = second compound 3.16 µM, first compound 0.1 µM
[27] = second compound 3.16 µM, first compound 0.316 µM
[28] = second compound 3.16 µM, first compound 1 µM
[29] = second compound 3.16 µM, first compound 3.16 µM
[30] = second compound 3.16 µM, first compound 10 µM
[31] = second compound 10 µM, first compound 0.0316 µM
[32] = second compound 10 µM, first compound 0.1 µM
[33] = second compound 10 µM, first compound 0.316 µM
[34] = second compound 10 µM, first compound 1 µM
[35] = second compound 10 µM, first compound 3.16 µM
[36] = second compound 10 µM, first compound 10 µM
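Also: spheroids exposed to agents for one week before reading.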
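For viability, T/C in this document: 100% = DMSO vehicle control viability.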

## Cc1cccc(N(C)C(=O)C2C(O)CCN2c2nc(C)cc(C(F)(F)F)c2C#N)c1 (stereo not drawn) + CN(C)c1ccc(Nc2c3ccc(NC(=O)CCN4CCCC4)cc3nc3cc(NC(=O)CCN4CCCC4)ccc23)cc1
Second compound 0.0316 µM
  IC50: > 10000 nM
Second compound 0.1 µM
  IC50: > 10000 nM
Second compound 0.316 µM
  IC50: > 10000 nM
Second compound 1 µM
  IC50: > 10000 nM
Second compound 3.16 µM
  IC50: > 10000 nM
Second compound 10 µM
  IC50: 2590 nM
[1]
  viability, T/C: 110%
[2]
  viability, T/C: 102%
[3]
  viability, T/C: 99.6%
[4]
  viability, T/C: 107%
[5]
  viability, T/C: 103%
[6]
  viability, T/C: 116%
[7]
  viability, T/C: 102%
[8]
  viability, T/C: 91.4%
[9]
  viability, T/C: 99.3%
[10]
  viability, T/C: 96.3%
[11]
  viability, T/C: 125%
[12]
  viability, T/C: 109%
[13]
  viability, T/C: 104%
[14]
  viability, T/C: 95.2%
[15]
  viability, T/C: 103%
[16]
  viability, T/C: 118%
[17]
  viability, T/C: 130%
[18]
  viability, T/C: 99.9%
[19]
  viability, T/C: 84.6%
[20]
  viability, T/C: 99.7%
[21]
  viability, T/C: 96.3%
[22]
  viability, T/C: 86%
[23]
  viability, T/C: 94.4%
[24]
  viability, T/C: 84.2%
[25]
  viability, T/C: 85.8%
[26]
  viability, T/C: 72.1%
[27]
  viability, T/C: 77.4%
[28]
  viability, T/C: 78%
[29]
  viability, T/C: 93.4%
[30]
  viability, T/C: 54.1%
[31]
  viability, T/C: 67.2%
[32]
  viability, T/C: 54.3%
[33]
  viability, T/C: 58%
[34]
  viability, T/C: 58.4%
[35]
  viability, T/C: 48.5%
[36]
  viability, T/C: 18.8%

## COc1cc(C2c3cc4c(cc3C(OC3OC5COC(C)OC5C(O)C3O)C3COC(=O)C23)OCO4)cc(OC)c1O (stereo not drawn) + CN(C)c1ccc(Nc2c3ccc(NC(=O)CCN4CCCC4)cc3nc3cc(NC(=O)CCN4CCCC4)ccc23)cc1
Second compound 0.0316 µM
  IC50: 771 nM
Second compound 0.1 µM
  IC50: 808 nM
Second compound 0.316 µM
  IC50: 689 nM
Second compound 1 µM
  IC50: 650 nM
Second compound 3.16 µM
  IC50: 551 nM
Second compound 10 µM
  IC50: 594 nM
[1]
  viability, T/C: 109%
[2]
  viability, T/C: 89.3%
[3]
  viability, T/C: 65%
[4]
  viability, T/C: 45.1%
[5]
  viability, T/C: 30.1%
[6]
  viability, T/C: 17.1%
[7]
  viability, T/C: 82.9%
[8]
  viability, T/C: 104%
[9]
  viability, T/C: 76.5%
[10]
  viability, T/C: 43.1%
[11]
  viability, T/C: 32.5%
[12]
  viability, T/C: 20.1%
[13]
  viability, T/C: 94.2%
[14]
  viability, T/C: 85.3%
[15]
  viability, T/C: 69.5%
[16]
  viability, T/C: 40.1%
[17]
  viability, T/C: 25.6%
[18]
  viability, T/C: 18.2%
[19]
  viability, T/C: 89.5%
[20]
  viability, T/C: 93.5%
[21]
  viability, T/C: 55.8%
[22]
  viability, T/C: 45.8%
[23]
  viability, T/C: 28%
[24]
  viability, T/C: 19.2%
[25]
  viability, T/C: 97.5%
[26]
  viability, T/C: 78.9%
[27]
  viability, T/C: 61.4%
[28]
  viability, T/C: 39%
[29]
  viability, T/C: 26%
[30]
  viability, T/C: 19.9%
[31]
  viability, T/C: 79.1%
[32]
  viability, T/C: 71%
[33]
  viability, T/C: 55.2%
[34]
  viability, T/C: 43%
[35]
  viability, T/C: 36.1%
[36]
  viability, T/C: 23.3%

## CC(=O)O[C@H]1C(=O)[C@@]2(C)[C@H]([C@H](OC(=O)c3ccccc3)[C@]3(O)C[C@H](OC(=O)[C@H](O)[C@@H](NC(=O)c4ccccc4)c4ccccc4)C(C)=C1C3(C)C)[C@]1(OC(C)=O)CO[C@@H]1C[C@@H]2O + Cc1[nH]c2ccc(F)cc2c1-c1nc2c3cccnc3c3ncccc3c2[nH]1
Second compound 0.0316 µM
  IC50: < 31.6 nM
Second compound 0.1 µM
  IC50: < 31.6 nM
Second compound 0.316 µM
  IC50: < 31.6 nM
Second compound 1 µM
  IC50: < 31.6 nM
Second compound 3.16 µM
  IC50: < 31.6 nM
Second compound 10 µM
  IC50: < 31.6 nM
[1]
  viability, T/C: 46.1%
[2]
  viability, T/C: 34.1%
[3]
  viability, T/C: 31%
[4]
  viability, T/C: 30.8%
[5]
  viability, T/C: 30.8%
[6]
  viability, T/C: 25.6%
[7]
  viability, T/C: 49%
[8]
  viability, T/C: 43.9%
[9]
  viability, T/C: 39%
[10]
  viability, T/C: 31.2%
[11]
  viability, T/C: 35.7%
[12]
  viability, T/C: 29.9%
[13]
  viability, T/C: 47.6%
[14]
  viability, T/C: 37.5%
[15]
  viability, T/C: 31.4%
[16]
  viability, T/C: 27.5%
[17]
  viability, T/C: 32.1%
[18]
  viability, T/C: 24.2%
[19]
  viability, T/C: 43.6%
[20]
  viability, T/C: 41.5%
[21]
  viability, T/C: 43.4%
[22]
  viability, T/C: 31.5%
[23]
  viability, T/C: 19.8%
[24]
  viability, T/C: 33.5%
[25]
  viability, T/C: 38.7%
[26]
  viability, T/C: 36.7%
[27]
  viability, T/C: 30.6%
[28]
  viability, T/C: 32.5%
[29]
  viability, T/C: 34.9%
[30]
  viability, T/C: 30.2%
[31]
  viability, T/C: 41.3%
[32]
  viability, T/C: 41.9%
[33]
  viability, T/C: 32.8%
[34]
  viability, T/C: 40.2%
[35]
  viability, T/C: 37.7%
[36]
  viability, T/C: 39%

## Cc1[nH]c2ccccc2c1CCNCc1ccc(/C=C/C(=O)NO)cc1 + CN(C)c1ccc(Nc2c3ccc(NC(=O)CCN4CCCC4)cc3nc3cc(NC(=O)CCN4CCCC4)ccc23)cc1
Second compound 0.0316 µM
  IC50: 168 nM
Second compound 0.1 µM
  IC50: 117 nM
Second compound 0.316 µM
  IC50: 156 nM
Second compound 1 µM
  IC50: 180 nM
Second compound 3.16 µM
  IC50: 119 nM
Second compound 10 µM
  IC50: 67.6 nM
Second compound 0.0316 µM, first compound 0.000999 µM
  viability, T/C: 132%
Second compound 0.0316 µM, first compound 0.00316 µM
  viability, T/C: 110%
Second compound 0.0316 µM, first compound 0.00999 µM
  viability, T/C: 133%
[1]
  viability, T/C: 109%
Second compound 0.0316 µM, first compound 0.0999 µM
  viability, T/C: 72.3%
[3]
  viability, T/C: 23.4%
Second compound 0.1 µM, first compound 0.000999 µM
  viability, T/C: 113%
Second compound 0.1 µM, first compound 0.00316 µM
  viability, T/C: 132%
Second compound 0.1 µM, first compound 0.00999 µM
  viability, T/C: 128%
[7]
  viability, T/C: 121%
Second compound 0.1 µM, first compound 0.0999 µM
  viability, T/C: 54.8%
[9]
  viability, T/C: 19.7%
Second compound 0.316 µM, first compound 0.000999 µM
  viability, T/C: 105%
Second compound 0.316 µM, first compound 0.00316 µM
  viability, T/C: 125%
Second compound 0.316 µM, first compound 0.00999 µM
  viability, T/C: 123%
[13]
  viability, T/C: 90.8%
Second compound 0.316 µM, first compound 0.0999 µM
  viability, T/C: 68.7%
[15]
  viability, T/C: 24.4%
Second compound 1 µM, first compound 0.000999 µM
  viability, T/C: 107%
Second compound 1 µM, first compound 0.00316 µM
  viability, T/C: 114%
Second compound 1 µM, first compound 0.00999 µM
  viability, T/C: 134%
[19]
  viability, T/C: 114%
Second compound 1 µM, first compound 0.0999 µM
  viability, T/C: 82.6%
[21]
  viability, T/C: 19%
Second compound 3.16 µM, first compound 0.000999 µM
  viability, T/C: 91.7%
Second compound 3.16 µM, first compound 0.00316 µM
  viability, T/C: 116%
Second compound 3.16 µM, first compound 0.00999 µM
  viability, T/C: 119%
[25]
  viability, T/C: 97%
Second compound 3.16 µM, first compound 0.0999 µM
  viability, T/C: 56.9%
[27]
  viability, T/C: 13.2%
Second compound 10 µM, first compound 0.000999 µM
  viability, T/C: 70.7%
Second compound 10 µM, first compound 0.00316 µM
  viability, T/C: 103%
Second compound 10 µM, first compound 0.00999 µM
  viability, T/C: 79.3%
[31]
  viability, T/C: 82.6%
Second compound 10 µM, first compound 0.0999 µM
  viability, T/C: 33.3%
[33]
  viability, T/C: 3.21%
